# Results: a melting point compilation (Tetko et al.)
row,melting point,SMILES
1,79 to 81 °C,O=C(O)CCCn1ccc2cc(Cl)ccc21
2,58 to 60 °C,Cc1ccc(CCC(=O)O)o1
3,117 to 119 °C,Cc1ccc(-c2csc(CC(N)=S)n2)cc1
4,237 to 239 °C,O=C(O)c1ccc(Nc2ccc(F)c(F)c2)c([N+](=O)[O-])c1
5,262 to 264 °C,COc1ccc(C(=O)O)cc1S(=O)(=O)N1CC(C)CC(C)C1 (stereo not drawn)
6,97 to 99 °C,CCOc1cccc(CNC(=O)CCl)c1
7,51 to 53 °C,C=Cc1nc(-c2cccc(Cl)c2)no1
8,120 to 122 °C,Cc1ncc(N)s1
9,132 to 134 °C,CC(=O)c1ccc(S(=O)(=O)N2CCCCC2C(=O)O)cc1 (stereo not drawn)
10,49 to 51 °C,C#CCOc1ccc(N)cc1
11,55 to 57 °C,Cc1cc(C)c(N=C=S)c(Cl)c1
12,198 to 200 °C,O=C(O)c1nn(-c2ccccc2I)cc1O
13,83 to 85 °C,O=C(O)CCc1cc(Cl)ccc1Br
14,147 to 149 °C,Cc1ccsc1-c1nnc(N)o1
15,97 to 99 °C,Nc1cc(CO)ccc1Cl
16,208 to 210 °C,O=C(O)c1cn(CC(=O)N2CCCC2)nn1
17,154 to 156 °C,Cc1cc(N)ccc1C(=O)O
18,94 to 96 °C,O=C1CCN(c2ccccc2)C1
19,74 to 76 °C,NCC(O)COCc1ccccc1 (stereo not drawn)
20,186 to 188 °C,NC(=S)CCN1C(=O)c2ccccc2C1=O
21,133 to 135 °C,O=C(O)c1ccc(Br)cc1OC(F)F
22,116 to 118 °C,N#CC(N)c1ccc2ccccc2c1 (stereo not drawn)
23,159 to 161 °C,CCc1csc(-n2cc(C(=O)O)cn2)n1
24,139 to 141 °C,Nc1cccc(-c2cn(Cc3ccccc3)nn2)c1
25,177 to 179 °C,O=S1(=O)CCN(S(=O)(=O)Cl)CC1

row,melting point,SMILES
1,101 to 103 °C,Cc1cc(C#N)ccc1NC1CC1
2,88 to 90 °C,CC(C)c1nccn1Cc1cccc(N)c1
3,238 to 240 °C,CC(C(=O)O)n1c(S)nc2ccccc2c1=O (stereo not drawn)
4,199 to 201 °C,CCOC(=O)C1=C(C)NC(C)=C(C(=O)O)C1c1cccc([N+](=O)[O-])c1 (stereo not drawn)
5,98 to 100 °C,N#CCCN(C(=O)CCC(=O)O)c1ccccc1
6,56 to 58 °C,O=C(O)C1CCCOC1c1ccccc1 (stereo not drawn)
7,130 to 132 °C,O=Cc1csc(-c2ccccn2)n1
8,235 to 237 °C,Cc1nn(C)c(C)c1C(=O)NC1(C(=O)O)CCCC1
9,185 to 187 °C,Nc1cc(N2CCOCC2)c(F)cc1[N+](=O)[O-]
10,154 to 156 °C,CC(C(=O)NC1CCC(C(=O)O)CC1)n1cccn1 (stereo not drawn)
11,261 to 263 °C,CNc1ccc([N+](=O)[O-])cc1C(=O)O
12,205 to 207 °C,O=C(O)c1ccc(C(F)F)cc1
13,147 to 149 °C,Nc1nc(C=Cc2ccccc2)cs1
14,149 to 151 °C,O=C1CC(C(F)F)=NN1
15,197 to 199 °C,O=Cc1cnc2ncccn12
16,313 to 315 °C,O=c1c2sc(-c3ccccc3)cc2nc(S)n1Cc1ccccc1
17,135 to 137 °C,O=C(O)C1CCN(C=CC(=O)C(F)(F)F)CC1
18,92 to 94 °C,COC(=O)CN(C)c1ccc(Br)cn1
19,233 to 235 °C,CCOC(=O)c1sc2[nH]cnc(=O)c2c1C
20,87 to 89 °C,Fc1ccc(NCc2cccnc2)c(F)c1
21,213 to 215 °C,O=C(O)CSC1=NS(=O)(=O)c2ccccc21
22,144 to 146 °C,Nc1nc2cc(F)c(F)cc2[nH]1
23,131 to 133 °C,COC(C)c1ncc(C(=O)O)s1 (stereo not drawn)
24,163 to 165 °C,CN1CCC(C(=O)O)CC1=O (stereo not drawn)
25,252 to 254 °C,O=c1[nH]c(=O)n(Cc2ccccc2)c2ncn(C3CCCC3)c12

row,melting point,SMILES
1,131 to 133 °C,Cc1ccc(S(=O)(=O)C2(C(=O)O)CCCC2)cc1
2,46 to 48 °C,Cc1nc(COc2ccc(C=O)cc2)cs1
3,42 to 45 °C,COC(=O)c1ccc(C(Br)Br)cc1
4,201 to 203 °C,CCCCn1c(N)c(NC)c(=O)[nH]c1=O
5,186 to 188 °C,O=C1CC(C(=O)O)C(C(=O)O)C1 (stereo not drawn)
6,77 to 79 °C,CC(CCNC(N)=O)c1ccccc1 (stereo not drawn)
7,164 to 166 °C,NNc1ccc(S(=O)(=O)N2CCCC2)cn1
8,96 to 98 °C,CC1CCNc2ccccc2N1 (stereo not drawn)
9,160 to 162 °C,Clc1nc(-c2ccccn2)nc2scc(-c3ccccc3)c12
10,39 to 41 °C,O=C(O)C1(O)CCC1
11,17 to 19 °C,O=Cc1cc(F)cc(F)c1
12,159 to 161 °C,O=C(O)c1cn(-c2ccc(F)cc2)nn1
13,237 to 239 °C,Cc1nn(-c2ccccn2)c2nc(C3CC3)cc(C(=O)O)c12
14,61 to 63 °C,CC(O)c1nc2ccccc2s1 (stereo not drawn)
15,103 to 115 °C,N#Cc1c(N)sc2c1CCCCC2
16,87 to 89 °C,O=C(O)COc1ccccc1OCc1ccccc1
17,144 to 146 °C,OCc1cc(-c2ccccc2)[nH]n1
18,124 to 126 °C,Nc1c(Oc2ccc(Cl)cc2)ccc2ncccc12
19,89 to 93 °C,Cc1ccc(NC(=O)OCC(F)(F)F)cc1
20,199 to 201 °C,N#Cc1cc(Br)cc(S(N)(=O)=O)c1
21,211 to 213 °C,Cc1cc(C(=O)O)nn1-c1ccc(Br)cc1
22,94 to 96 °C,CCN(CC)CC(=O)Nc1ccc(C(F)(F)F)cc1N
23,124 to 126 °C,NC(=S)c1cccc(S(=O)(=O)NC2CCCCCCC2)c1
24,66 to 68 °C,NCCCN1C(=O)C2C3C=CC(C3)C2C1=O (stereo not drawn)
25,111 to 113 °C,O=C(O)c1cccc(CO)c1

row,melting point,SMILES
1,73 to 75 °C,O=C1CCOc2ccc(Br)cc21
2,171 to 173 °C,N#Cc1cccnc1Oc1ccccc1N
3,200 to 202 °C,CC1Cc2ccccc2N1S(=O)(=O)c1ccc(F)c(C(=O)O)c1 (stereo not drawn)
4,133 to 135 °C,COc1cccc2[nH]cc(CC#N)c12
5,229 to 231 °C,O=C(O)c1ccc(N2C(=O)C=CC2=O)cc1
6,73 to 75 °C,COc1ccc(N2CCN(C(=O)CCCl)CC2)cc1
7,272 to 274 °C,CC(C)CC(N)c1nnn[nH]1 (stereo not drawn)
8,97 to 99 °C,CC(=O)NCC1CCNCC1
9,282 to 284 °C,O=C(O)c1c[nH]nc1-c1ccc(F)c(Cl)c1
10,192 to 194 °C,O=C(O)c1nc(-n2cnc3ccccc32)ccc1Cl
11,159 to 161 °C,CC(C)c1noc2ncc(C(=O)O)cc12
12,47 to 51 °C,Cc1csc(=O)n1CCBr
13,76 to 78 °C,O=C(CCl)Nc1ccnn1C1CCCC1
14,77 to 79 °C,Nc1ccc2c(cnn2C(F)F)c1
15,214 to 216 °C,NC(CSCCOc1ccccc1)C(=O)O (stereo not drawn)
16,179 to 181 °C,Cc1n[nH]c(=O)c(C(=O)O)c1C
17,112 to 114 °C,NC(=S)C1CC1
18,123 to 133 °C,COc1ccc(OCc2cc(C(=O)O)c(C)o2)cc1
19,123 to 125 °C,O=[N+]([O-])c1ccc(N2CCC(CO)CC2)nc1
20,160 to 162 °C,O=C(O)CCc1ccc(S(=O)(=O)N2CCOCC2)cc1
21,45 to 47 °C,CCOc1c(N)cc(Cl)cc1Br
22,88 to 90 °C,Cc1cc(C)c(S(=O)(=O)Nc2cccc(C(F)(F)F)c2)c(C)c1
23,179 to 181 °C,Cc1sc(C(N)=O)cc1N
24,179 to 181 °C,CC1(c2ccco2)NC(=O)NC1=O (stereo not drawn)
25,35 to 37 °C,O=S(=O)(Cl)c1cncc(F)c1

row,SMILES,melting point
1,Cc1ccc2sc(C3CCNCC3)nc2c1,111 to 113 °C
2,Clc1cc(N2CCNCC2)ncn1,100 to 102 °C
3,Cc1cc(C(=O)CCl)c(C)s1,53 to 57 °C
